Source: patent publication US12539298B2, “Lobinaline N-oxides as positive allosteric modulators of the dopamine transporter with potential value in the treatment of substance abuse disorders” (University of Kentucky Research Foundation, priority 2019, dated 2026)
Where two headings read alike, the source gives them in different places.

How the values were obtained:
[1] = Drinking in the dark model of binge drinking; type: in vivo, C57Bl/6J mice; settings: 25 mg/Kg SC
Description: “Drinking in the dark” is a model for binge drinking in which C57Bl/6J mice are given limited access to alcohol during their dark cycle. With repeated daily access, mice will voluntarily drink to blood alcohol levels above 150 mg/dl. Lobeline reduces alcohol consumption in this model and it has predictive validity in that both naltrexone and acamprosate are active.
Methods: 8 male and 8 female mice were used for each of these studies and scoring was by an observer blind to treatment. Statistical analysis was by ANOVA followed by Bonnferoni posthoc with significance at p<0.05.

[2] = nicotine-induced locomotor activation (LMA), open field; type: in vivo, SD rats
Description: low S.C. doses of nicotine, repeated daily, cause progressive LMA related to mesolimbic DA release. This is reduced by lobeline and varenicline and therefore has predictive value as a screen for potential therapeutics in nicotine use disorder.
Methods: 2 groups of 6 adult SD rats of each sex were tested in an open-field apparatus for LMA. Each animal received a daily nicotine injection (0.5 mg/Kg SC) for 6 days with the last nicotine injection preceded (20 min) by 25 mg/Kg SC of lobinaline bi-N-oxide. Behavior was recorded and scored by an observer blind to treatment. Data was presented as line crosses/5 minutes with LMA over days 1-5 compared to LMA on day 6.

DAT [3] = target: T1, DAT (Rattus norvegicus, UniProt P23977); assay: [3H]DA uptake into rat striatal synaptosomes; type: biochemical; design: from tissue; host or cells: rat striatum (synaptosomes; homogenate); settings: compound added 15 min before [3H]DA, 30 min at 37° C, read-out: IC50, inhibition of [3H]-DA uptake
Description: Lobinaline or the N-oxides were added 15 min before addition of [3H]DA. Synaptosomal uptake of [3H]DA was measured after 30 min incubation at 37° C.

nicAChRs [4] = assay: displacement of [3H]epibatidine from rat brain homogenates; type: binding
[5] = conditioned place preference (abuse potential); type: in vivo, SD rats
Source text: In conditioned place preference a chamber with distinct cues is repeatedly paired with administration of the test drug. A second chamber is repeatedly paired with a control injection. After conditioning, a test phase allows the rat to move between the chambers. If a drug is “rewarding” (i.e. has abuse potential), the rat spends more time in the drug-associated chamber. If it is aversive, the opposite result is obtained.
Methods: 6 male and 6 female SD rats were used for each drug and dose. Test drugs (5 or 25 mg/kg lobinaline, or 25 mg/Kg of lobinaline bi-N-oxide S.C) were paired with the “less preferred” compartment (standard for drugs that may be weakly reinforcing) for 20 minutes. On the next day, rats received a control (DMSO/saline) injection and were placed in the preferred chamber. After three repeated pairings (test and control), the subjects were given access to both chambers and the time spent in each compartment was recorded and scored by an observer blind to treatment. Analysis was by two way ANOVA with post hoc Bonnferoni with significance set at p<0.05. Results. Most animals spent most of the test period in the compartment originally preferred in the drug-free state, and there were no significant differences between drug and vehicle controls.

DAT [6] = target: T1, DAT; assay: DA clearance in striatum of anesthetized rats by in vivo electrochemistry (high-speed chronoamperometry), Example 8; design: DA clearance in striatum and nucleus accumbens of urethane-anesthetized SD rats; from tissue; host or cells: striatum / nucleus accumbens of living anesthetized SD rats; species or system SD rats; settings: for reduction in DA clearance: striatum, 1 minute after local application (lobinaline ~250 nl 1 mM; 403, 419 ~300 nl 250 μM), FIGS. 7-9; for increase in amplitude of DA signal: ~300 nl, 250 μM local application, FIGS. 8, 9
Description: DA clearance in striatum and nucleus accumbens of urethane-anesthetized SD rats was monitored by in vivo electrochemistry using high-speed chrono-amperometry [see 36]. After obtaining reproducible signals for locally applied DA, vehicle or drug was applied slowly over 10-30 sec, then 30-60 sec later the next application of DA was made, with subsequent DA applications at 5-minute intervals for 25-30 min. The DA kinetic data from each animal was analyzed using FAST software (Quanteon). […] These effects were no longer seen 3-5 minutes after lobinaline ejection. They are consistent with simple competitive inhibition of the DAT by lobinaline. […] However, the lobinaline N-oxides produce different effects. Representative data from lobinaline N-oxide, at the same concentration used for lobinaline (1 mM in 250 nl medium) are shown in FIG. 6. […] This is entirely consistent with effects on synaptosomal [3H]DA uptake in vitro above, and probably represents competitive inhibition. However, after exposure to the N-oxide there is a significant and prolonged (c20 min) increase in the first order rate of decay of the DA peak. […] This increase in rate constant induced by the N-oxide varied from 20× to 2× at increasing depths in the DV gradient.
The uptake rate of locally applied DA (˜100 nl; 200 μM) was measured before and 1 minute after local application of lobinaline (˜250 nl; 1 mM), 403 (˜300 nl; 250 μM) or 419 (˜300 nl; 250 μM) (FIGS. 7, 8, and 9).

nicAChRs [7] = assay: [3H]DA release from superfused rat striatal slices; type: cell-based; settings: antagonist 10 μM
Description: Effects of lobinaline and nicotine on [3H]DA release from superfused rat striatal slices (ref 5): rat brain striatal slices were incubated with [3H]DA for 30 min at […] before transfer to superfusion chambers. […] To evaluate the role of nicAChRs, striatal slices preloaded with [3H]-DA were pretreated with the nicAChR antagonist mecamylamine (10 μM) prior to superfusion of lobinaline (100 μM). […] With the data above from SHSY5Y cells, this supports a partial agonist action of lobinaline at nicAChRs. The N-oxides have not yet been tested in this system. Lobinaline has weak agonist effects on nicAChRs, but also has as yet unquantified antagonist effects (i.e. it acts as a partial agonist at nicAChRs).

nicAChR = assay: 45Ca2+ entry into SHSY5Y cells; type: cell-based; settings: SHSY5Y cells; antagonist 1 uM
Source text: Effects of lobinaline and nicotine on ^45Ca^2+ entry into SHSY5Y cells: nicAChR function can be evaluated semi-quantitatively in this cell line by measuring ^45Ca^2+ entry in response to nicotine. […] The lobinaline N-oxides have not yet been tested in this system.

DAT [8] = target: T1, DAT; design: from tissue; host or cells: rat striatum (synaptosomes; homogenate); settings: literature values [33], [34]; read-out: IC50, DA uptake under similar conditions; cited from earlier work
aqueous solubility = type: physicochemical
Source text: Lobinaline (FIG. 1), was isolated from plant material and identified as the first-known binitrogenous plant alkaloid more than 80 years ago [27]. The applicants began to test its pharmacological activity after identifying Lobelia cardinalis as a novel source of nicAChR activity by high throughput screening in 2005 [26]. This plant species has no history of abuse, or traditional medicinal use of relevance to SUDs. […] These actions support lobinaline as a lead compound for the treatment of SUDs, particularly alcohol and nicotine use disorders. […] Lobinaline also appears to have appropriate pharmacokinetics and low toxicity. […] Conversely, this makes it a good test of the ability of target-directed evolution to generate novel inhibitors of the DAT in mutant plant cells.
Lobinaline and the “mono”-N-oxide were separated from plant and culture material by acid/base extraction, but the bi-N-oxide was derived from lobinaline using 3-chloroperbenzoic acid. All these compounds were separated by column chromatography with identity and purity confirmed by LC/MS.

DAT [9] = target: T1, DAT; assay: dopamine uptake in striatum of isoflurane-anesthetized rats by in vivo electrochemistry, Examples 19-20; design: DA clearance in striatum and nucleus accumbens of urethane-anesthetized SD rats; from tissue; host or cells: striatum / nucleus accumbens of living anesthetized SD rats; species or system SD rats
Description: After obtaining reproducible signals for locally applied DA (50-75 nl, 200 μM) to produce a control DA peak height below 1 uM, vehicle or drug was locally applied slowly over 10-30 sec (˜500 nl 250 μM), then 60 sec later the next application of DA was performed, with subsequent DA applications at 5-min intervals for 25 min. […] The DA kinetic data from each animal were analyzed using FAST software (Quanteon, LLC, Nicholasville KY USA). […] These parameters were compared between pre- and post-drug application by one-way ANOVA with Tukey's post hoc analysis, with significance assigned at p<0.05.

T1 sequence (P23977 whole entry): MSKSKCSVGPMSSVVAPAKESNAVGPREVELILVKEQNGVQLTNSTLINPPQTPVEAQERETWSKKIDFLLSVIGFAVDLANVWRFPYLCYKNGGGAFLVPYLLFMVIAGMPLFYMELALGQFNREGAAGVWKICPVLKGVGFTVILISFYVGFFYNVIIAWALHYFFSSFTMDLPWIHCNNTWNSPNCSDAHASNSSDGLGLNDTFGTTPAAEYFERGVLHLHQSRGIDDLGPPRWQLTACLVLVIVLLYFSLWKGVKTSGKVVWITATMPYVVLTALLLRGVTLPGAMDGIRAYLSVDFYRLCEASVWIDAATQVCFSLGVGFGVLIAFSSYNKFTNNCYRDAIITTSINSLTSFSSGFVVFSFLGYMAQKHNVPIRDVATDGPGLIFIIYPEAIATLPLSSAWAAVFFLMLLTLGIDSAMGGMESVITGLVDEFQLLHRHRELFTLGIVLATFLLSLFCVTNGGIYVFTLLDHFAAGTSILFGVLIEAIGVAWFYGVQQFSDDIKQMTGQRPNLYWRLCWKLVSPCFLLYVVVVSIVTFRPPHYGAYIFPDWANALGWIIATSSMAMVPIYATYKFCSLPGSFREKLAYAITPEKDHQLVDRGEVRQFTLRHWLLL

In the case of `C[N+]1([O-])CCCC2C(c3ccccc3)C(C3=[N+]([O-])CCCC3)C(c3ccccc3)CC21` (centres unmarked) [lobinaline bi-N-oxide], the “food or water intake” value [1] is reported as “no reduction in food or water intake”, the overt toxicity [1] is reported as “neither compound produced overt toxicity” and the “effect on nicotine-induced LMA sensitization trend” value ([2]; 25 mg/Kg SC 20 min before nicotine 0.5 mg/Kg SC on day 6) is reported as “reversed in both sexes”. For the same compound, the “individual animals showing the same trend” value ([2]; day 6 vs days 1-5, repeated measures) was 10/12, the IC50 (DAT [3]) was 1190 nM and the Ki (nicAChRs [4]) was 6500 nM. The “character of [3H]epibatidine displacement” value (nicAChRs [4]) was “monophasically displaced”, the overt toxicity ([5]; after 3 repeated drug administrations) was “no signs of overt toxicity” and the “sedation or locomotor activation” value ([5]; lobinaline 5 or 25 mg/kg, bi-N-oxide 25 mg/Kg S.C) was “no sedation or locomotor activation”. The “conditioned place preference or aversion” value ([5]; lobinaline 5 or 25 mg/kg, bi-N-oxide 25 mg/Kg S.C, three pairings) was “neither lobinaline nor the lobinaline bi-N-oxide produced conditioned place preference or aversion”, the “effects on the DAT in vivo compared with mono-N-oxide” value (DAT [6]; rat, in vivo) was “less potent than the “natural” mono-N-oxide” and the “reduction in DA clearance” value (DAT [6]) was 40%. For the same compound, the “increase in amplitude of DA signal” value (DAT [6]) was 4 fold.
With `CNC1(C)C2CCC(C2)C1(C)C` (centres unmarked) [mecamylamine] the “effect of antagonist pretreatment on lobinaline (100 μM)-evoked fractional [3H] release” value (nicAChRs [7]) was “significantly attenuated” and the “inhibition of lobinaline-fraction-evoked 45Ca2+ entry by antagonist” value (nicAChR) was “completely inhibited”.
For `CC(NC(C)(C)C)C(=O)c1cccc(Cl)c1` (centres unmarked) [bupropion], the IC50 (DAT [8]) is listed as 1900 nM.
With `C[N+]1([O-])CCCC2C(c3ccccc3)C(C3=NCCCC3)C(c3ccccc3)CC21` (centres unmarked) [lobinaline N-oxide, lobinaline mono-N-oxide] the IC50 (DAT [3]) was 517 nM, the aqueous solubility (aqueous solubility) was “much more soluble than lobinaline” and the “character of [3H]epibatidine displacement” value (nicAChRs [4]) was “more weakly with a multiphasic displacement curve”. For the same compound, the “DA clearance parameters, dorsal striatum, early changes” value (DAT [9]; DV-3.5 to DV-5.5 mm, FIG. 12) was “increase in T80 and clearance rate that reflects the increase in peak amplitude, with no change in k−1”, the “DA peak amplitude, dorsal striatum” value (DAT [9]; DV-3.5 to DV-5.5 mm, up to 26 minutes after micro-injection, FIG. 12) was “marked and prolonged (but variable) increase” and the “DA peak amplitude, ventral striatum” value (DAT [9]; DV-6 to −7.5 mm (shell of nucleus accumbens), up to 26 minutes, FIG. 13) was “marked and consistent increase”. For the same compound, the “DA clearance parameters, ventral striatum” value (DAT [9]; DV-6 to −7.5 mm, FIG. 13) was “increase in clearance rate and k−1 at 21 and 26 minutes”, the “DA clearance parameters, dorsal striatum, later” value (DAT [9]; after 11-26 minutes, FIG. 12) was “increase in both uptake rate and k−1 with little change in T80” and the “duration of increase in DA amplitude” value (DAT [9]; over four local applications of dopamine) was “at least 20 minutes”. For the same compound, the “effect on DA clearance parameters” value (DAT [9]; relative to % control) was “reduced immediately after microinjection but increased later”, the “effect on amplitude of the DA signal” value (DAT [9]; single local application ~500 nl 250 μM, striatum, FIGS. 10, 11) was “increase in amplitude” and the “increase in amplitude of the DA signal” value (DAT [6]; 1 mM in 250 nl medium, FIG. 6) was “twofold increase”. For the same compound, the “duration of increase in first order rate of decay of the DA peak” value (DAT [6]; after exposure, 1 mM in 250 nl) was ~20 min, the “increase in first order rate constant of DA decay” value (DAT [6]; dorso-ventral position −5.5 mm, remains after 16 minutes) was “about three-fold” and the “reduction in DA clearance” value (DAT [6]) was 60%. The “increase in amplitude of DA signal” value (DAT [6]) was “doubling”.
